Drawing on patent publication US11974997B2, “RORgamma modulators and uses thereof” (Genfit, priority 2017, dated 2024), this text covers IC50 for ten compounds.

One experiment concerns the target T1, human RORγt (Homo sapiens, UniProt P51449).
T1 construct: the full-length cDNA of human RORγt; expressed in transfected cells; host or cells: COS-7 (monkey kidney)
T1 sequence (P51449 1-497 isoform P51449-2): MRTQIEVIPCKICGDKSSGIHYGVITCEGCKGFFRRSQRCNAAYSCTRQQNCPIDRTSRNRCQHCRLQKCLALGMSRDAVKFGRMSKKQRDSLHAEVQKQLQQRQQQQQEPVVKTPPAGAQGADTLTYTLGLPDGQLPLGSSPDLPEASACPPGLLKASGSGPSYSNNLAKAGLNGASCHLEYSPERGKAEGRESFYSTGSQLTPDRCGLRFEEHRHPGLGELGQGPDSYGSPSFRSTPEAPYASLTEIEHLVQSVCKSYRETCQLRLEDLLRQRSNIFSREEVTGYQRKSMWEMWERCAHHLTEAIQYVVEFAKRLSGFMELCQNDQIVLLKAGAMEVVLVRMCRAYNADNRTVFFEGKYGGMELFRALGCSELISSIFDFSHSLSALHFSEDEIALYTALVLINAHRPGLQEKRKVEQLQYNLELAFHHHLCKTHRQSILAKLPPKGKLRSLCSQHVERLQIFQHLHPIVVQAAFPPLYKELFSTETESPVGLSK
The experiment in a line: RORE Luciferase/RORγt transactivation assay. Type of experiment: cell-based. The conditions noted are these: COS-7 cells, human IL-17 promoter reporter + RORγt plasmid, 20 h; read-out: IC50, inhibition of RORγt activity (luciferase). The protocol: It is well known that RORγ binds to a conserved non-coding sequence (CNS) enhancer element in the IL-17 promoter.
Culture medium was changed every 2 days.
The 4.3 Kb human IL-17 promoter containing the RORγ-specific CNS enhancer element was PCR amplified from human genomic DNA and cloned into a pGL3-TKLuc2Cp reporter plasmid.
The luciferase reporter plasmid and the RORγt overexpression plasmid were transfected into COS-7 cell line using 4 μLJetPEITM/μg of DNA. Briefly, 150 ng of DNA (ration ½ between RORE-Tk Luc2Cp and cDNA RORγt or the empty vector for the negative control) was served to transfect adherent COS-7 cells in a […] culture flask, in complete medium (see cos-7 cell line culture).
Cells were then detached (using trypsin) and washed by centrifugation at 300 g for 10 minutes. Cell pellet was resuspended in serum free/phenol red free DMEM and seeded in 384 well plates at a density of 10000 cells/well and then incubated for 4h at 37° C.
Compounds were dissolved in 100% DMSO to obtain 10 mM stock solutions. For each compound, test concentrations were diluted in serum free/phenol red free DMEM using the Genesis Freedom 200™ (TECAN) and added to the cells to obtain a 0.3% DMSO final concentration (in a final volume of 40 μL per well).
The luciferase activity was then measured with 40 μL/well steady-Glo Luciferase assay system (Promega, Madison, WI) and after incubation at room temperature for 30 minutes. The luminescence was estimated using the Ultra384 reader (TECAN). Data were collected and analyzed using GraphPad Prism software (GraphPad Software V5.02, San Diego California USA). IC50 in μM and Emax in % were reported for each compound.

Experiment [1] concerns the target T2, RORγt ligand-binding domain (RORγt-LBD) (Homo sapiens, UniProt P51449).
T2 construct: 20 nM recombinantly expressed RORγ-LBD fused to GST
T2 sequence (P51449 269-508 limits assumed): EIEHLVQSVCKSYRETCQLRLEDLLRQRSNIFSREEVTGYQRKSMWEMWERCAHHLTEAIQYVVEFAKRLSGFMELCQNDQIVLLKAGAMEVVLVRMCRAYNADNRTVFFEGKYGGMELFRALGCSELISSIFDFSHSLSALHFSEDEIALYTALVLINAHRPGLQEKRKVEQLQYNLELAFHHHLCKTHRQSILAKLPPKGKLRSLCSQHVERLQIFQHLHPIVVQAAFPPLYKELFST
In words: Time-resolved FRET (TR-FRET) RORγt coactivator assay. The settings on record: GST-RORγ-LBD, biotinylated RIP140 peptide, 2 hours; read-out: IC50, coactivator displacement. Type of experiment: biochemical. The text has this: Time-resolved FRET (TR-FRET) RORγt coactivator assay was used to identify RORγ modulator compounds with ligand-dependent coactivator displacement. The assay uses a d2-labeled anti-GST antibody, synthetic N-terminally biotinylated peptide which is derived from nuclear receptor coactivator protein RIP140, and a RORγt ligand-binding domain (RORγt-LBD) that is tagged with glutathione-S-transferase (GST). The influence of compounds on the RORγ-peptide interaction relies on the binding dependent energy transfer from a donor to an acceptor fluorophor attached to the binding partner of interest. […] For reduction of background from compound fluorescence, TR-FRET method makes use of generic fluorophore labels and time resolved detection.
The assays were done in a final volume of 20 μl in a 384 well plate in a CHAPS buffer (2 mM CHAPS; 1 mM DTT, 2 mM EDTA; 0.1% BSA), containing 20 nM recombinantly expressed RORγ-LBD fused to GST, 30 nM N-terminally biotinylated peptide, 1 nM streptavidin-terbium conjugate and 20 nM d2 labeled-anti-GST. Test compounds were diluted using 10 mM stock solution. The range of the final compound concentrations used in this test was from 0.3 nM to 30 μM (logarithmic scale). DMSO content of the samples was kept at 1%. The assay was equilibrated for 2 hours in the dark at room temperature in 384 well plates (Falcon). The signal was detected by an Ultra384 reader (TECAN). […] Compounds that promote coactivator displacement induce a concentration-dependent decrease in time-resolved fluorescent signal. Data were collected and analyzed using GraphPad Prism software (GraphPad Software V5.02, San Diego California USA). IC50 in μM and Emax in % were reported for each compound.

pIC50: −log10 of the molar value.

For the compound `Cc1ccc(C(NC(=O)Cc2ccc(N3CCN(S(C)(=O)=O)CC3)nc2)c2ccc(C)o2)c(N2CCCCC2)c1` (centres unmarked) [Cpd.1, 2-[6-(4-methanesulfonylpiperazin-1-yl)pyridin-3-yl]-N-{[4-methyl-2-(piperidin-1-yl)phenyl](5-methylfuran-2-yl)methyl}acetamide], the pIC50 on human RORγt is 6.00 to 7.00; in experiment [1], more than 7.00.
In the case of `Cc1ccc(C(NC(=O)Cc2ccc(N3CCC(S(C)(=O)=O)CC3)nc2)c2ccc(C)o2)c(N2CCCCC2)c1` (centres unmarked) [Cpd.2, 2-[6-(4-methanesulfonylpiperidin-1-yl)pyridin-3-yl]-N-{[4-methyl-2-(piperidin-1-yl)phenyl](5-methylfuran-2-yl)methyl}acetamide], the negative logarithm of the IC50 (pIC50) on human RORγt was 6.00 to 7.00; in experiment [1] it was more than 7.00.
For `Cc1ccc(C(NC(=O)Cc2ccc(N3CCN(C(=O)OC(C)(C)C)CC3)nc2)c2ccc(C)o2)c(N2CCCCC2)c1` (centres unmarked) [Cpd.3, tert-butyl 4-{5-[({[4-methyl-2-(piperidin-1-yl)phenyl](5-methylfuran-2-yl)methyl}carbamoyl)methyl]pyridin-2-yl}piperazine-1-carboxylate], the negative-log IC50 (pIC50) (at human RORγt; in experiment [1]) was 6.00 to 7.00 each time.
`Cc1ccc(C(NC(=O)Cc2cnc(N3CCN(S(C)(=O)=O)CC3)nc2)c2ccc(C)o2)c(N2CCCCC2)c1` (centres unmarked) [Cpd.4, 2-[2-(4-methanesulfonylpiperazin-1-yl)pyrimidin-5-yl]-N-{[4-methyl-2-(piperidin-1-yl)phenyl](5-methylfuran-2-yl)methyl}acetamide]: the figures for the negative-log IC50 (pIC50) (on human RORγt; in experiment [1]) were 6.00 to 7.00 and more than 7.00, respectively.
Turning to `Cc1ccc(C(NC(=O)Cc2cnc(N3CCC(S(C)(=O)=O)CC3)nc2)c2ccc(C)o2)c(N2CCCCC2)c1` (centres unmarked) [Cpd.5, 2-[2-(4-methanesulfonylpiperidin-1-yl)pyrimidin-5-yl]-N-{[4-methyl-2-(piperidin-1-yl)phenyl](5-methylfuran-2-yl)methyl}acetamide], the figures for the pIC50 (on human RORγt; in experiment [1]) were 6.00 to 7.00 and more than 7.00, respectively.
Regarding `CC(=O)C1CCN(c2ncc(CC(=O)NC(c3ccc(C)o3)c3ccc(C)cc3C)cn2)CC1` (centres unmarked) [Cpd.6, 2-[2-(4-acetylpiperidin-1-yl)pyrimidin-5-yl]-N-[(2,4-dimethylphenyl)(5-methylfuran-2-yl)methyl]acetamide], the results for the pIC50 (on human RORγt; in experiment [1]) were 5.00 to 6.00 and 6.00 to 7.00, respectively.
For `COC(=O)C1CCN(c2ncc(CC(=O)NC(c3ccc(C)o3)c3ccc(C)cc3N3CCCCC3)cn2)CC1` (centres unmarked) [Cpd.7, methyl 1-{5-[({[4-methyl-2-(piperidin-1-yl)phenyl](5-methylfuran-2-yl)methyl}carbamoyl)methyl]pyrimidin-2-yl}piperidine-4-carboxylate], the pIC50 at human RORγt is 5.00 to 6.00; in experiment [1], 6.00 to 7.00.
For `CC(=O)C1CCN(c2ncc(CC(=O)NC(c3ccc(C)o3)c3ccc(C)cc3N3CCCCC3)cn2)CC1` (centres unmarked) [Cpd.8, 2-[2-(4-acetylpiperidin-1-yl)pyrimidin-5-yl]-N-{[4-methyl-2-(piperidin-1-yl)phenyl](5-methylfuran-2-yl)methyl}acetamide], the negative logarithm of the IC50 (pIC50) (on human RORγt; in experiment [1]) was 6.00 to 7.00 throughout.
As for `Cc1ccc(C(NC(=O)Cc2cnc(N3CCC(C(=O)O)CC3)nc2)c2ccc(C)o2)c(N2CCCCC2)c1` (centres unmarked) [Cpd.9, 1-{5-[({[4-methyl-2-(piperidin-1-yl)phenyl](5-methylfuran-2-yl)methyl}carbamoyl)methyl]pyrimidin-2-yl}piperidine-4-carboxylic acid], the negative-log IC50 (pIC50) is 5.00 to 6.00 at human RORγt and more than 7.00 in experiment [1].
For the compound `Cc1ccc(C(NC(=O)Cc2ccc(N3CCNCC3)nc2)c2ccc(C)o2)c(N2CCCCC2)c1` (centres unmarked) [Cpd.10, N-{[4-methyl-2-(piperidin-1-yl)phenyl](5-methylfuran-2-yl)methyl}-2-[6-(piperazin-1-yl)pyridin-3-yl]acetamide], the pIC50 is 6.00 to 7.00 at human RORγt and more than 7.00 in experiment [1].
